Measured values taken from patent US20190125888A1, “TARGETED CONJUGATES AND PARTICLES AND FORMULATIONS THEREOF” (priority 2015, published 2019).
Like-named read-outs stand apart in the source and are kept apart here. Where a SMILES comes first, the peptide text is derived from it. Bridges are numbered along the chain shown (N, C = ends). [ ]: non-standard residue; d: D form. The star is where a group is joined. NH(CH2)2SS(DM1) = COc1cc2cc(c1Cl)N(C)C(=O)C[C@H](OC(=O)[C@H](C)N(C)C(=O)CCSSCCN*)[C@]1(C)O[C@H]1[C@H](C)[C@@H]1C[C@@](O)(NC(=O)O1)[C@H](OC)/C=C/C=C(\C)C2; X1 = COc1cc2cc(c1Cl)N(C)C(=O)C[C@H](OC(=O)[C@H](C)N(C)C(=O)CCS*)[C@]1(C)O[C@H]1[C@H](C)[C@@H]1C[C@@](O)(NC(=O)O1)[C@H](OC)/C=C/C=C(\C)C2; Octanoyl = CCCCCCCC(=O)*

Key:
[1] = Chrom LogP of maytansinoid conjugates; type: physicochemical
[2] = Ligand charge of maytansinoid conjugates; type: physicochemical
human SSTR2 = human SSTR2 (Homo sapiens, UniProt P30874); assay: Radioligand-receptor binding assay, [125I] somatostatin, membranes from SSTR2 expressing CHO-K1 cells
Method: These conjugates were also assessed in an in vitro assay evaluating binding to the somatostatin receptor 2 (SSTR2). A radioligand-receptor binding assay was conducted at Eurofins Panlabs (Taiwan) to determine the affinity of conjugates described herein to the SSTR2. The assay measures binding of radiolabeled ligand, [^125I] labeled somatostatin, to human SSTR2 using membrane preparations from SSTR2 expressing CHO-K1 cells. Membranes were incubated with radiolabeled somatostatin (0.03 nM) in the presence of conjugate/compound starting at a dose of 10 uM using 6× serial dilutions to obtain a 10-pt curve. After a four hour incubation, membranes were filtered and washed 3× and counted to determine the remaining [^125I] somatostatin bound to the receptor. IC50 values were determined by a non-linear, least squares regression analysis using MathIQ™ (ID Business Solutions Ltd., UK).

[3] = tested on: NCI-H524 (ATCC) human lung cancer cells; type: cell-based
Method: FIG. 1 is a graph of various conjugates represented as bars and showing on the Y-axis their activity in an H524 proliferation assay with and without competition by octreotide. […] This illustrates the suprprising finding that only maytansinoid conjugates show activity that is dependent on the receptor.
Conjugates were assessed in an in vitro assay evaluating inhibition of cell proliferation. NCI-H524 (ATCC) human lung cancer cells were plated in 96 well, V-bottomed plates (Costar) at a concentration of 5,000 cells/well and 24 hours later were treated with compound for 6 hours and further incubated 66 hours. Compound starting dose was 20 μM and three fold serial dilutions were done for a total of ten points. After 6 hours of treatment, cells were spun down, the drug containing media was removed, and fresh complete medium was added and used to resuspend the cells, which were spun again. After removal of the wash media, the cells were resuspended in complete medium, then transferred into white walled, flat bottomed 96 well plates. […] Proliferation was measured using CellTiter Glo reagent using the standard protocol (Promega) and a Glomax multi+detection system (Promega). Percent proliferation inhibition was calculated using the following formula: % inhibition=(control-treatment)/control*100. Control is defined as vehicle alone. IC50 curves were generated using the nonlinear regression analysis (four parameter) with GraphPad Prism 6.
Conjugates were tested for their activity dependence on the somatostatin receptor. Active agent Z in the conjugate was selected from auristatin, carbazitaxel, DM1, doxorubicin, platinum, SN-38 and vinblastine. Active agent Z is connected to octreotide with various linkers. Proliferation IC50 values of the conjugates were measured. Proliferation IC50 values of the conjugates without octreotide competition were also measured. The ratio of IC50 with octreotide competition and IC50 without octreotide competition is an indicator of whether activity is at least particially dependent on bind to the somatostatin receptor. […] Therefore, the activity of conjugates comprising DM1 is dependent on the binding to the somatostatin receptor.

human NCI-H69 SCLC = assay: H69 xenograft efficacy study, tumor growth inhibition; type: in vivo, mice
Method: Applicants assessed the activity of maytansinoid conjugates in vivo. In these experiments, the ability of conjugates to affect the growth of human NCI-H69 SCLC was tested. For the in vivo study, 8 week old female NCR nude mice were inoculated subcutaneously into the right flank with 2 million cells in 1:1 RPMI 1640 (Invitrogen, Carlsbad, Calif.)/Matrigel® (BD Biosciences, San Jose, Calif.). Tumor measurements were taken twice weekly, using vernier calipers. Tumor volume was calculated using the formula: V=0.5×width×width×length.
When tumors approached a volume of 200 mm^3, mice were randomized into four groups of ten animals. Mice were treated with vehicle control (10% propylene glycol in water for injection) and maytansinoid conjugates (10% propylene glycol in water for injection). Final tumor volumes were analyzed using with a one-way analysis of variance and Tukey multiple comparison test.

[4] = read-out: H524 IC50 6 h, 6 hours treatment, further 66 hours incubation
[5] = read-out: H524 IC50 with 100 μM octreotide 6 h, with 100 μM octreotide competition, 6 h treatment

Sequence of human SSTR2 (P30874 whole entry): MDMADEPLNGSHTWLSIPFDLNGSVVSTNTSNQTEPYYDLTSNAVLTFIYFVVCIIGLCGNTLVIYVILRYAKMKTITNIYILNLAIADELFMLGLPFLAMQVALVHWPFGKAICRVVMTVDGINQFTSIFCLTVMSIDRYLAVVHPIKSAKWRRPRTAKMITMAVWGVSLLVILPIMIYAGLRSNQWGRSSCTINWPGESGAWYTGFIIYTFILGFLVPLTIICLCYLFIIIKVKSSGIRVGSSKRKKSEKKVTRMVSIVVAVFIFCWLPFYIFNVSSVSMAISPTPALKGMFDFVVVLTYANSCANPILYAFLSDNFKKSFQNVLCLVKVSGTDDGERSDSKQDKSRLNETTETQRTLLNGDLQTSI

SMILES | chromatographic logP [1] | Ligand charge [2] | Ki (human SSTR2) [nM] | IC50 [3, 4] [nM] | IC50 [3, 5] [nM] | TGI % Day 13 (human NCI-H69 SCLC; 0.7 mg/kg once weekly for two doses, Day 13) [%] | TGI % Day 17 (human NCI-H69 SCLC; 0.7 mg/kg once weekly for two doses, Day 17) [%] | TGI % Day 20 (human NCI-H69 SCLC; 0.7 mg/kg once weekly for two doses, Day 20) [%] | TGI % Day 24 (human NCI-H69 SCLC; 0.7 mg/kg once weekly for two doses, Day 24) [%] | TGI % Day 30 (human NCI-H69 SCLC; 0.7 mg/kg once weekly for two doses, Day 30) [%] | TGI % at day 22 (human NCI-H69 SCLC; Dose 0.67 × 2 mg/kg, total dose 1.34 mg/kg) [%]
COc1cc2cc(c1Cl)N(C)C(=O)C[C@H](OC(=O)[C@H](C)N(C)C(=O)CCSSC[C@H](NC(=O)[C@@H]1CSSC[C@H](NC(=O)[C@@H](Cc3ccccc3)NC(=O)NCCC(c3ccccc3)c3ccccc3)C(=O)N[C@@H](Cc3ccc(O)cc3)C(=O)N[C@H](Cc3c[nH]c4ccccc34)C(=O)N[C@@H](CCCCN)C(=O)N[C@@H]([C@@H](C)O)C(=O)N1)C(N)=O)[C@]1(C)O[C@H]1[C@H](C)[C@@H]1C[C@@](O)(NC(=O)O1)[C@H](OC)/C=C/C=C(\C)C2 [Conjugate 41] | 3.29 | +1 | 0.5 | 41 | 97 |  |  |  |  |  | 
COc1cc2cc(c1Cl)N(C)C(=O)C[C@H](OC(=O)[C@H](C)N(C)C(=O)CCSSCCNC(=O)[C@@H](NC(=O)[C@@H]1CSSC[C@H](NC(=O)[C@@H](Cc3ccccc3)NC(=O)NC3CCCCC3)C(=O)N[C@@H](Cc3ccc(O)cc3)C(=O)N[C@H](Cc3c[nH]c4ccccc34)C(=O)N[C@@H](CCCCN)C(=O)N[C@@H]([C@@H](C)O)C(=O)N1)[C@@H](C)O)[C@]1(C)O[C@H]1[C@H](C)[C@@H]1C[C@@](O)(NC(=O)O1)[C@H](OC)/C=C/C=C(\C)C2 [Conjugate 20] | 3.1 | +1 |  | 11 | 52 |  |  |  |  |  | 
COc1cc2cc(c1Cl)N(C)C(=O)C[C@H](OC(=O)[C@H](C)N(C)C(=O)CCSSC[C@H](NC(=O)[C@@H]1CSSC[C@H](NC(=O)[C@@H](Cc3ccccc3)NC(=O)Nc3cc(C(F)(F)F)cc(C(F)(F)F)c3)C(=O)N[C@@H](Cc3ccc(O)cc3)C(=O)N[C@H](Cc3c[nH]c4ccccc34)C(=O)N[C@@H](CCCCN)C(=O)N[C@@H]([C@@H](C)O)C(=O)N1)C(N)=O)[C@]1(C)O[C@H]1[C@H](C)[C@@H]1C[C@@](O)(NC(=O)O1)[C@H](OC)/C=C/C=C(\C)C2 [Conjugate 38] | 3.47 | +1 | 5.34 | 261 | 296 |  |  |  |  |  | 
COc1cc2cc(c1Cl)N(C)C(=O)C[C@H](OC(=O)[C@H](C)N(C)C(=O)CCSSCCC(=O)NC[C@H](NC(=O)[C@@H]1CSSC[C@H](NC(=O)[C@H](N)Cc3ccccc3)C(=O)N[C@@H](Cc3ccc(O)cc3)C(=O)N[C@H](Cc3c[nH]c4ccccc34)C(=O)N[C@@H](CCCCN)C(=O)N[C@@H]([C@@H](C)O)C(=O)N1)C(N)=O)[C@]1(C)O[C@H]1[C@H](C)[C@@H]1C[C@@](O)(NC(=O)O1)[C@H](OC)/C=C/C=C(\C)C2 [Conjugate 44] |  | +2 | 0.022 | 3.6 | 218 | 58.9 | 56.7 | 59.6 | 53.1 | 56.1 | 60
CCCCCCCC(=O)N[C@H](Cc1ccccc1)C(=O)N[C@H]1CSSC[C@@H](C(=O)NCCSSCCC(=O)N(C)[C@@H](C)C(=O)O[C@H]2CC(=O)N(C)c3cc(cc(OC)c3Cl)C/C(C)=C/C=C/[C@@H](OC)[C@@]3(O)C[C@H](OC(=O)N3)[C@@H](C)[C@@H]3O[C@@]23C)NC(=O)[C@H]([C@@H](C)O)NC(=O)[C@H](CCCCN)NC(=O)[C@@H](Cc2c[nH]c3ccccc23)NC(=O)[C@H](Cc2ccc(O)cc2)NC1=O [Conjugate 21] (Octanoyl-[dF]CY[dW]KTC-{NH(CH2)2SS(DM1)}; disulfide 2-7) | 3.48 | +1 | 1.29 |  |  |  |  |  |  |  | 
COc1cc2cc(c1Cl)N(C)C(=O)C[C@H](OC(=O)[C@H](C)N(C)C(=O)CCSSC[C@H](NC(=O)[C@@H]1CSSC[C@H](NC(=O)[C@H](N)Cc3c[nH]c4ccccc34)C(=O)N[C@@H](Cc3ccc(O)cc3)C(=O)N[C@H](Cc3c[nH]c4ccccc34)C(=O)N[C@@H](CCCCN)C(=O)N[C@@H]([C@@H](C)O)C(=O)N1)C(N)=O)[C@]1(C)O[C@H]1[C@H](C)[C@@H]1C[C@@](O)(NC(=O)O1)[C@H](OC)/C=C/C=C(\C)C2 [Conjugate 24] (H-[dW]CY[dW]KTCC(X1)-NH2; disulfide 2-7) | 2.03 | +2 |  | 140 | 214 |  |  |  |  |  | 
COc1cc2cc(c1Cl)N(C)C(=O)C[C@H](OC(=O)[C@H](C)N(C)C(=O)CCSSC[C@H](NC(=O)[C@@H]1CSSC[C@H](NC(=O)[C@@H](Cc3ccccc3)NC(=O)NCCC(F)(F)C(F)(F)C(F)(F)C(F)(F)C(F)(F)C(F)(F)C(F)(F)C(F)(F)F)C(=O)N[C@@H](Cc3ccc(O)cc3)C(=O)N[C@H](Cc3c[nH]c4ccccc34)C(=O)N[C@@H](CCCCN)C(=O)N[C@@H]([C@@H](C)O)C(=O)N1)C(N)=O)[C@]1(C)O[C@H]1[C@H](C)[C@@H]1C[C@@](O)(NC(=O)O1)[C@H](OC)/C=C/C=C(\C)C2 [Conjugate 40] | 4 | +1 | 3.51 |  |  |  |  |  |  |  | 
CCNC(=O)[C@@H](NC(=O)[C@@H]1CSSC[C@H](NC(=O)[C@@H](Cc2ccccc2)NCCCSSCCC(=O)N(C)[C@@H](C)C(=O)O[C@@H]2CC(=O)N(C)c3cc(cc(OC)c3Cl)C/C(C)=C/C=C/[C@@H](OC)[C@@]3(O)C[C@H](OC(=O)N3)[C@@H](C)[C@@H]3O[C@@]23C)C(=O)N[C@@H](Cc2ccc(O)cc2)C(=O)N[C@H](Cc2c[nH]c3ccccc23)C(=O)N[C@@H](CCCCN)C(=O)N[C@@H]([C@@H](C)O)C(=O)N1)[C@@H](C)O [Conjugate 50] | 2.32 | +2 |  | 43 | 149 |  |  |  |  |  | 
CCNC(=O)[C@@H](NC(=O)[C@@H]1CSSC[C@H](NC(=O)[C@@H](Cc2ccccc2)NC(=O)NCCSSCCC(=O)N(C)[C@@H](C)C(=O)O[C@H]2CC(=O)N(C)c3cc(cc(OC)c3Cl)C/C(C)=C/C=C/[C@@H](OC)[C@@]3(O)C[C@H](OC(=O)N3)[C@@H](C)[C@@H]3O[C@@]23C)C(=O)N[C@@H](Cc2ccc(O)cc2)C(=O)N[C@H](Cc2c[nH]c3ccccc23)C(=O)N[C@@H](CCCCN)C(=O)N[C@@H]([C@@H](C)O)C(=O)N1)[C@@H](C)O [Conjugate 53] | 2.45 | +1 |  | 42 | 86 |  |  |  |  |  | 
CCCCCCNC(=O)[C@@H](NC(=O)[C@@H]1CSSC[C@H](NC(=O)[C@@H](Cc2ccccc2)NC(=O)NCCSSCCC(=O)N(C)[C@@H](C)C(=O)O[C@H]2CC(=O)N(C)c3cc(cc(OC)c3Cl)C/C(C)=C/C=C/[C@@H](OC)[C@@]3(O)C[C@H](OC(=O)N3)[C@@H](C)[C@@H]3O[C@@]23C)C(=O)N[C@@H](Cc2ccc(O)cc2)C(=O)N[C@H](Cc2c[nH]c3ccccc23)C(=O)N[C@@H](CCCCN)C(=O)N[C@@H]([C@@H](C)O)C(=O)N1)[C@@H](C)O [Conjugate 52] | 3.24 | +1 |  | 23 | 167 |  |  |  |  |  | 
CCCC(=O)N[C@H](Cc1ccccc1)C(=O)N[C@H]1CSSC[C@@H](C(=O)N[C@H](C(=O)NCCSSCCC(=O)N(C)[C@@H](C)C(=O)O[C@H]2CC(=O)N(C)c3cc(cc(OC)c3Cl)C/C(C)=C/C=C/[C@@H](OC)[C@@]3(O)C[C@H](OC(=O)N3)[C@@H](C)[C@@H]3O[C@@]23C)[C@@H](C)O)NC(=O)[C@H]([C@@H](C)O)NC(=O)[C@H](CCCCN)NC(=O)[C@@H](Cc2c[nH]c3ccccc23)NC(=O)[C@H](Cc2ccc(O)cc2)NC1=O [Conjugate 19] | 2.88 | +1 |  | 6.9 | 111 |  |  |  |  |  | 
